In publication PMC8632988, “Inhibition of SYK and cSrc kinases can protect bone and cartilage in preclinical models of osteoarthritis and rheumatoid arthritis” (Scientific Reports, 2021):
Values joined by “and” are separate entries in the source; they are usually repeats but may differ in a detail not shown here. Equal entries are not always repeated.

Tests used:
Lewis rats, CIA model = test: Collagen-induced semi-established arthritis model in rats; type: in vivo, rat
Method: Rat CIA model was performed was performed at Pharmenterprises, Russia and approved by Ethics Committee of Pharmenterprises. Female Lewis rats with body weight of 164–183 g (Charles River Laboratories, Inc., Wilmington, MA) were injected with porcine type II collagen (Chondrex) emulsified with Freund’s Incomplete Adjuvant (Sigma Aldrich) at two sites at the base of the tail according to standard protocol. On day 7, the rats were boosted with a second subcutaneous injection. On day 6 of the study, rats were randomized by body weight into six groups: a control group of four, and five treatment groups of eight. […] Disease progression was monitored via daily ankle thickness measurements. At study termination on day 16 rats were anesthetized with Isoflurane, bled by vacutainer through the descending aorta to exsanguinate and then euthanized for tissue collection. Hind paws were transected at the level of the medial and lateral malleolus, weighed, and collected for microscopy.
[…]

MKK6 = target: T1, MKK6 (Homo sapiens, UniProt P52564); test: Kinase selectivity profile assay; type: biochemical; conditions: 500 nM; relative to DMSO; read-out: Residual enzymatic activity
T1 construct: purchased Reaction Biology Corporation
T1 sequence (P52564 whole entry): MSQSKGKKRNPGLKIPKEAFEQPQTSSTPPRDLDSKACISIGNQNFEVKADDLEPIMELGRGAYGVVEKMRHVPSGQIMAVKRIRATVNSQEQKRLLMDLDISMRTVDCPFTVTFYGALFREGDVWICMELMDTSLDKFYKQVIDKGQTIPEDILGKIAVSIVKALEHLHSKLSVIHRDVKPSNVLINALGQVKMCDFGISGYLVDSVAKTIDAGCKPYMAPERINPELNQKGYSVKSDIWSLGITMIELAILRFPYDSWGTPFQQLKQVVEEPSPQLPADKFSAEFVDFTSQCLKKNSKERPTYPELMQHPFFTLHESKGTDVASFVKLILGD
In short: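 Radiometric kinase assay run by a standard protocol. Unbound phosphate was removed by washing filters in phosphoric acid, and product radioactivity gave percent remaining kinase activity versus DMSO vehicle reactions. Run in duplicate.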

DYRK4 = target: T2, DYRK4 (Homo sapiens, UniProt Q9NR20); test: Kinase selectivity profile assay; type: biochemical; conditions: 500 nM; relative to DMSO; read-out: Residual enzymatic activity
T2 construct: purchased Reaction Biology Corporation
T2 sequence (Q9NR20 whole entry): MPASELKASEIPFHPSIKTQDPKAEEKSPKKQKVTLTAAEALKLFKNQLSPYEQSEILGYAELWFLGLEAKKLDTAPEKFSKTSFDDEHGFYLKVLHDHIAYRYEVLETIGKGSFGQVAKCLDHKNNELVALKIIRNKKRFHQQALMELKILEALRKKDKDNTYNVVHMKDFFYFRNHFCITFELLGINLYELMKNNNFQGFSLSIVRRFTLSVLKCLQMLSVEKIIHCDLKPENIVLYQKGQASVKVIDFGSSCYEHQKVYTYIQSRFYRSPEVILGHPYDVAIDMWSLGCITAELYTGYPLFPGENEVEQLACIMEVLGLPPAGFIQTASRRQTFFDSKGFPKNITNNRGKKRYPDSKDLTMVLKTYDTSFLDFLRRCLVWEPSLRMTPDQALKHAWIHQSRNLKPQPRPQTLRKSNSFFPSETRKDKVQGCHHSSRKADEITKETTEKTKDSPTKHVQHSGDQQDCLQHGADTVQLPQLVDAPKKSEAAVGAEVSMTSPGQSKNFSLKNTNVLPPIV
Method: The activity of MT-SYK-03 against cSrc kinase and selectivity profile towards other 341 kinases was determined at Reaction Biology Corporation (Malvern, PA, USA) using the standard kinase assay protocol. […] Kinase activity data was expressed as the percent remaining kinase activity in test samples compared to vehicle (dimethyl sulfoxide) reactions based on the radioactivity of reaction products (see Table S2). Experiment was replicated twice.

341 kinases = test: Kinase selectivity profile, whole panel; type: biochemical, human; conditions: 500 nM
Method: The activity of MT-SYK-03 against cSrc kinase and selectivity profile towards other 341 kinases was determined at Reaction Biology Corporation (Malvern, PA, USA) using the standard kinase assay protocol. […]; unbound phosphate was removed by extensive washing of filters in phosphoric acid. Kinase activity data was expressed as the percent remaining kinase activity in test samples compared to vehicle (dimethyl sulfoxide) reactions based on the radioactivity of reaction products (see Table S2). Experiment was replicated twice.

[1] = ankle, day 16, MTX 0.075 mg/kg PO QD + test article vehicle PO BID, group mean
[2] = ankle, day 16, MTX 0.075 mg/kg PO QD + test article vehicle PO BID, individual joint (animal, R/L)
[3] = ankle, day 16, MTX 0.075 mg/kg PO QD + test article vehicle PO BID, vs vehicle
[4] = knee, day 16, MTX 0.075 mg/kg PO QD + test article vehicle PO BID, group mean
[5] = knee, day 16, MTX 0.075 mg/kg PO QD + test article vehicle PO BID, individual joint (animal, R/L)
[6] = knee, day 16, MTX 0.075 mg/kg PO QD + test article vehicle PO BID, vs vehicle

CN(Cc1cnc2nc(N)nc(N)c2n1)c1ccc(C(=O)N[C@@H](CCC(=O)O)C(=O)O)cc1 [MTX, methotrexate, reference compound]
Bone Resorption score, Mean (Lewis rats, CIA model; [1]): 1.19
Cartilage Damage score, Mean (Lewis rats, CIA model; [1]): 2.00
Inflammation score, Mean (Lewis rats, CIA model; [1]): 3.88
Pannus score, Mean (Lewis rats, CIA model; [1]): 1.19
Periosteal Bone Formation score, Mean (Lewis rats, CIA model; [1]): 0.63
Periosteal Naïve Bone Width Actual, Mean (Lewis rats, CIA model; [1]): 126.00 μm
Summed Histopathology Scores, Mean (Lewis rats, CIA model; [1]): 8.88
Bone Resorption score (0=normal to 5=severe) (Lewis rats, CIA model; [2]): 2 and 0 and 1 and 0.5
Cartilage Damage score (0=normal to 5=severe) (Lewis rats, CIA model; [2]): 3 and 0.5 and 2
Inflammation score (0=normal to 5=severe) (Lewis rats, CIA model; [2]): 5 and 1 and 4 and 3 and 2
Pannus score (0=normal to 5=severe) (Lewis rats, CIA model; [2]): 2 and 0 and 1 and 0.5
Periosteal Bone Formation score (0=normal to 5=severe) (Lewis rats, CIA model; [2]): 1 and 0 and 0.5
Periosteal Naïve Bone Width 16x Measure (Lewis rats, CIA model; [2]): 3 and 4 and 0 and 2 and 1
Periosteal Naïve Bone Width Actual (Lewis rats, CIA model; [2]): 189 μm and 252 μm and 0 μm and 126 μm and 63 μm
Summed Histopathology Scores (Lewis rats, CIA model; [2]): 13 and 1.5 and 9.5 and 8.5 and 6.5 and 12 and 4
Periosteal Naïve Bone Width, ANOVA to Vehicle (Lewis rats, CIA model; ankle, day 16, MTX 0.075 mg/kg PO QD + test article vehicle PO BID, p value): p < 0.05
Bone Resorption score, % inhibition (Lewis rats, CIA model; [3]): 19%
Cartilage Damage score, % inhibition (Lewis rats, CIA model; [3]): 17%
Inflammation score, % inhibition (Lewis rats, CIA model; [3]): 14%
Pannus score, % inhibition (Lewis rats, CIA model; [3]): 19%
Periosteal Bone Formation score, % inhibition (Lewis rats, CIA model; [3]): 51%
Periosteal Naïve Bone Width, % inhibition (Lewis rats, CIA model; [3]): 44%
Summed Histopathology Scores, % inhibition (Lewis rats, CIA model; [3]): 20%
Bone Resorption score, Mean (Lewis rats, CIA model; [4]): 0.28
Cartilage Damage score, Mean (Lewis rats, CIA model; [4]): 0.66
Inflammation score, Mean (Lewis rats, CIA model; [4]): 2.03
Pannus score, Mean (Lewis rats, CIA model; [4]): 0.44
Summed Histopathology Scores, Mean (Lewis rats, CIA model; [4]): 3.41
Bone Resorption score (0=normal to 5=severe) (Lewis rats, CIA model; [5]): 0.5 and 0 and 1
Cartilage Damage score (0=normal to 5=severe) (Lewis rats, CIA model; [5]): 1 and 0.5 and 0 and 2
Inflammation score (0=normal to 5=severe) (Lewis rats, CIA model; [5]): 3 and 0.5 and 1 and 0 and 5 and 4 and 2
Pannus score (0=normal to 5=severe) (Lewis rats, CIA model; [5]): 0.5 and 0 and 1
Summed Histopathology Scores (Lewis rats, CIA model; [5]): 5 and 4.5 and 0.5 and 2 and 1 and 0 and 9 and 6 and 5.5 and 3
Bone Resorption score, % inhibition (Lewis rats, CIA model; [6]): 61%
Cartilage Damage score, % inhibition (Lewis rats, CIA model; [6]): 50%
Inflammation score, % inhibition (Lewis rats, CIA model; [6]): 36%
Pannus score, % inhibition (Lewis rats, CIA model; [6]): 42%
Summed Histopathology Scores, % inhibition (Lewis rats, CIA model; [6]): 43%
Decrease of periosteal bone width in knee joints (Lewis rats, CIA model; rat CIA, MTX 0.075 mg/kg PO QD): ~ 43%
Histopathology scores for cartilage damage and bone resorption, ankles and knees (Lewis rats, CIA model; rat CIA, day 16): did not show statistical significance for any parameter

COc1cc(Nc2ncc(F)c(Nc3ccc4c(n3)NC(=O)C(C)(C)O4)n2)cc(OC)c1OC [R406, reference compound]
remaining activity at 0.5 µM (MKK6): 112%
remaining activity at 0.5 µM (DYRK4): 77.1%
Number of kinases inhibited by more than 50% (341 kinases): 104 kinases
Number of kinases inhibited by more than 80% (341 kinases): 50 kinases
Number of kinases inhibited by more than 90% (341 kinases): 26 kinases
